{"source": "patent US8461106B2", "about": "“Biofilm prevention using lactoferrin” (The Trustees of the University of Pennsylvania, priority 2007, dated 2013)", "origin": "cited, not measured here", "system": "pseudomonas biofilms", "data": [{"substance": "gentamicin", "values": [{"measurement": "MBEC for pseudomonas biofilms relative to MIC for planktonic pseudomonas", "result": 60, "unit": "fold"}]}]}
